Results as given in US20080206792A1, “Method of identifying compounds useful to treat neuronal degenerative diseases” (University of Iowa Research Foundation, priority 2005, published 2008).
Like-named read-outs stand apart in the source and are kept apart here.

Columns and labels:
Rac1/SOD1 binding = target: T1, Rac1/SOD1 binding (Homo sapiens, UniProt P63000); assay: In vitro pull-down of His-Rac1-GTPγS with SOD1
T1 construct: purchased Cytoskeleton Inc. (His-Rac1); Oxis Research (bovine SOD1)
Experimental: Pull-down assays with GST- and His-tagged proteins. […] The GTPases were either used directly or preloaded with either GTPγS or GDPβS and then washed. […] Samples were incubated at room temperature (RT) for 30 minutes with intermittent gentle agitation. […] The fourth wash was carried out in 50 mM Tris pH 6.8. Proteins were eluted using 20 μl 125 mM imidazole and samples were then mixed with SDS-PAGE reducing loading buffer and separated by SDS-PAGE for Western blotting.

Nox = type: biochemical, mouse
Experimental: Lucigenin chemiluminescence (LCL) assay for NADPH-dependent superoxide (.O2) production. NADPH oxidase activities were analyzed by measuring the rate of ? generation using a chemiluminescent, lucigenin-based system (Li et al., 1998). 5 μM lucigenin in 50 μl of each subcellular fractions was incubated in the dark at room temperature for 15 minutes. LCL was measured using a single-tube Luminometer TD20-20 (Turner Designs Sunnyvale, Calif.). The reaction was initiated by the addition β-NADPH to a final concentration of 100 μM with or without DPI and/or SOD as indicated. LCL was measured over the course of 5 minutes. The initial slope of the luminescence curve (RLU/minute) was used to calculate the rate of luminescence product formation and compared between samples as an index of NADPH oxidase activity.

Nox2 = Nox2 (Mus musculus, UniProt Q61093); conditions: PMDF endosomes with purified bovine SOD1
Description: Subcellular Fractionation.
Lucigenin chemiluminescence (LCL) assay for NADPH-dependent superoxide (.O2) production.

MCF-7 cells = assay: H2HFF-BSA endosomal fluorescence after IL-1β in MCF-7 cells; type: cell-based, human
Experimental: In vivo localization of redox-active endosomes and ROS production. In vivo localization of superoxides within endosomes was performed using OxyBURST Green H2HFF-BSA (Molecular Probes). Stock solutions (1 mg/ml) were generated immediately prior to use by dissolving H2HFF-BSA in PBS under nitrogen and protected from light. Cells were incubated in the presence of 50 μg/ml OxyBurst Green H2HFF-BSA for 2 minutes at 37° C. and then stimulated by the addition of IL-1β (1 ng/ml). Cells were fixed in 4% paraformaldehyde at various times (1-10 minutes) post-stimulation and evaluated by fluorescent microscopy. Various compounds (1 mg/ml SOD or 10 μM DPI) were added at the time of IL-1β stimulation. Co-localization of H2HFF-BSA and EEA1 was performed by immunofluorescent localization in post-fixed samples using an anti-EEA1 monoclonal antibody (Transduction Laboratories) and a Texas Red-Conjugated Goat Anti-Mouse Antibody (Jackson ImmunoResearch Laboratories). In vivo localization of total cellular ROS (predominantly H2O2) was performed using H2DCFDA (Molecular Probes). […]
IL-1β induces Nox2 complex activation in early endosomes. […] By incubating cells in the presence of H2HFF-BSA, the endosomal compartment was loaded with this dye and ? detected by a green fluorescence signal. […] These findings confirmed that Nox-derived ? were the major ROS detected by H2HFF-BSA in the endosomal compartment. […]

NADPH oxidase [1] = target: T2, NADPH oxidase (Homo sapiens, UniProt P04839); assay: Lucigenin assay of NADPH-dependent superoxide production in vesicular fractions of IL-1β-stimulated MCF-7 cells
Experimental: Cytokine treatments and vesicular isolation. MCF-7 cells were treated with recombinant IL-1β at the indicated concentration for 20 minutes prior to all vesicular isolations. For endosomal loading experiments, purified bovine Cu/ZnSOD (Oxis Research) and/or catalase (Sigma-Aldrich) proteins were added to fresh media (0.1 to 1 mg protein/ml) and applied to cells 10 minutes prior to cytokine treatment in the continued presence of SOD and/or catalase. Cells were washed and scraped into ice-cold PBS. Cell pellets were then resuspended in 0.5 ml of homogenization buffer (0.25 M sucrose, 10 mM triethanolamine, 1 mM EDTA, 1 mM PMSF, and 100 ug/ml aprotinin), homogenized in a Duall tissue grinder (Duall), and centrifuged at 2000×g at 4° C. for 10 minutes. The supernatant was designated the post-nuclear supernatant (PNS). […] The PNS was then bottom loaded under two-step gradients of 24% and 20% Iodixanol in homogenization buffer. Samples were centrifuged at 30,500 rpm for 2 hours at 4° C. Fractions were collected from the top to the bottom of the centrifuge tube at 4° C. (about 300 μl per fraction) and utilized immediately for NADPH oxidase activity and immuno-isolation, or frozen for Western blot analysis.
NFκB and NADPH oxidase activity assays. […] NADPH oxidase activities were analyzed by measuring the rate of ? generation using a chemiluminescent, lucigenin-based system (Li et al., 2001). Prior to the initiation of the assay, 5 μg of vesicular proteins were combined with 5 μM lucigenin (Sigma-Aldrich) in PBS and incubated in darkness at room temperature for 10 minutes. The reaction was initiated by the addition of 100 μM of NADPH (Sigma-Aldrich) and changes in luminescence were measured over the course of 3 minutes (5 readings/second). The slope of the luminescence curve (relative light units [RLU] per minute) (r>0.95) was used to calculate the rate of ? formation as an index of NADPH oxidase activity (RLU/min μg protein).

SOD1-G93A mice = assay: Survival and disease progression of G93A-SOD1 transgenic (ALS) mice given apocynin in drinking water; type: in vivo, mouse
Description: FIG. 14. […] D) Survival Index is the time between disease onset and clinical death and is a marker of disease progression.
(§1) FIG. 17. […] A) Survival curve for mice treated with different doses of apocynin in their water beginning at 14 days of age. Number of mice (N) for each treatment group is shown along with median survival times in days. B) Survival data of male and female mice for each given dose of apocynin. Mice treated for eye infections with antibiotics are marked as boxes. Those mice that were unsuccessfully treated and died from eye infections are denoted by an X within the box. Circles denote animals that never contracted eye infection. The number of mice in each group (N) is given above the mean survival in days for each dose of apocynin. C) Relationship between age of disease onset (as determined by a 5% weight loss during a one week period) and apocynin dosage. D) Survival Index was measured as the time from disease onset until the animal reached clinical death for each of the given doses of apocynin. E) NADPH-dependent superoxide production (Nox activity) was measured in total membranes of lumbar spinal cord from end-stage G93A-SOD1 transgenic mice (about 120 days of age) either untreated or treated with apocynin (300 mg/kg) for 5 days prior to analysis (N=5 in each group). F) Dihydroethidium fluorescence in lumbar spinal cord of the same mice shown in (E).
However, it is currently unclear if other Rac-regulated Nox complexes (such as Nox1 and Nox3) might also contribute to altered ROS production in ALS. To test the therapeutic potential of direct Nox inhibition on the pathoprogression of ALS disease, apocynin in vivo inhibition studies were performed in G93A-ALS mice.

MO59J (glial) cells = assay: NADPH-dependent superoxide production and cell death in glial cells infected with adenovirus expressing mutant SOD1; type: cell-based; conditions: apocynin 100 μM for 72 hours
Description: (§2) FIG. 15. […] A) NADPH-dependent superoxide production in total endomembranes from brain, spinal cord, and liver of non-transgenic or transgenic mice overexpressing WT-SOD1 or G93A-SOD1 (N=3 animals in each group). B) Dihydroethidium (DHE) fluorescent detection of superoxide in lumbar spinal cord sections from 120 day old non-transgenic or transgenic mice overexpressing WT-SOD1 or G93A-SOD1. DAP1 staining demarcates nuclei in lower panels. C, D) Measure of superoxide production (C) or trypan-blue exclusion as a measure of cell death (D) in SH-SY (neuronal) or MO59J (glial) cells infected with adenoviral vectors expressing LacZ, WT-SOD1, or the indicated mutant SOD1. E) Superoxide production and percentage of cell death in SH-SY or MO59J cells following infection with the indicated adenoviral vectors followed by treatment with or without apocynin (100 μM) for 72 hours. F) Rac-GTP activation as determined by association with GST-Pak1 using spinal cord cell lysates from non-transgenic (control) or G93A-SOD1 transgenic mice at 120 days of age. Controls include lysate from control mice incubated with GTPγS (+) or GDPβS (−) prior to performing Pak1 pull-down assays. […]

SH-SY (neuronal) cells = assay: NADPH-dependent superoxide production and cell death in neuronal cells infected with adenovirus expressing mutant SOD1; type: cell-based; conditions: apocynin 100 μM for 72 hours
Description: as §2

NADPH oxidase [2] = assay: Nox activity (lucigenin, DHE) in lumbar spinal cord of end-stage G93A-SOD1 mice after 5 days of apocynin; type: in vivo, mouse; conditions: terminal stage ALS mice, apocynin 300 mg/kg in water for five days
Description: as §1

[3] = type: in vivo; conditions: non-ALS mice treated with apocynin
NADPH oxidase [4] = target: T2, NADPH oxidase; assay: ESR (DMPO adduct) of NADPH-dependent superoxide by IL-1β-activated endosomes; type: biochemical; design: enhanced recruitment of endogenous Nox2 to endosomes only following IL-1β stimulation; endogenous in cells; host or cells: MCF-7 cells, IL-1β-stimulated, iodixanol vesicular fractions; conditions: endosomal loading prior to vesicular isolation

O[C@H](CS)[C@H](O)CS (racemic) [DTT, dithiothreitol]
DTT concentration reversing H2O2-mediated inhibition of Rac1/SOD1 binding (Rac1/SOD1 binding; Rac1 oxidized with 300 pM H2O2): 50 to 300 µM

c1ccc2c(c1)[I+]c1ccccc1-2 [DPI, diphenyleneiodonium chloride]
NADPH-dependent superoxide production (Nox): inhibited | SOD1-mediated enhancement in endosomal NADPH-dependent superoxide (Nox2): sensitive | IL-1β-induced H2HFF-BSA fluorescence (MCF-7 cells; 10 μM DPI added at IL-1β stimulation): significantly inhibited | NADPH-dependent superoxide production in peak vesicular fractions (NADPH oxidase [1]): sensitive

OO [H2O2, hydrogen peroxide]
Lowest H2O2 concentration causing a significant decrease in the binding affinity of Rac1 for SOD1 (Rac1/SOD1 binding; Rac1 reduced with DTT, preloaded with GTPγS): 50 pM

COc1cc(C(C)=O)ccc1O [apocynin, 4-Hydroxy-3-methoxyacetophenone]
Number of motor neurons in the lumbar spinal cord (SOD1-G93A mice; 300 mg/kg, at 120 days): significantly increased | Probability of survival (SOD1-G93A mice; SOD1-G93A mice, apocynin 30 mg/Kg, nontreated 125 days, p<0.0001): 185 days | Gait analysis (SOD1-G93A mice; apocynin 30 mg/Kg, at 114 days of age, untreated mice impaired gait): normal gait | Survival Index (time between disease onset and clinical death) (SOD1-G93A mice; apocynin 30 mg/Kg, n=6, untreated 11 days): 32 days | Survival of G93A-SOD1 mice, dose dependence (SOD1-G93A mice; apocynin in drinking water from 2 weeks of age): prolonged survival of G93A-SOD1 mice in a dose-dependent fashion | Average age of disease onset (SOD1-G93A mice; first observation of hind limb weakness, apocynin 30 mg/Kg, n=6, untreated 117.5 days): 156.5 days | 50% survival time (SOD1-G93A mice; highest dose 300 mg/kg in drinking water from 2 weeks of age, increased from 125 days): 239 days | Life expectancy and disease onset (SOD1-G93A mice; lowest tested dose): prolong life expectancy and delay disease onset | Age of onset of disease and survival index versus dose (SOD1-G93A mice; onset judged by 5% weight loss and gait): clear dose response | Cell viability (MO59J (glial) cells): increase in cell viability | SOD1 mutant facilitated NADPH-dependent superoxide production (MO59J (glial) cells): abrogated | Nox activity (SH-SY (neuronal) cells): could not inhibit | Protection from mutant SOD1-mediated cellular injury (SH-SY (neuronal) cells): nor did it protect | Nox-derived superoxide production in vivo (spinal cord, lucigenin and DHE assays) (NADPH oxidase [2]): effectively inhibited | Eye disease [3]: did not develop eye disease

C=C(C)[C@H]1Cc2c(ccc3c2O[C@@H]2COc4cc(OC)c(OC)cc4[C@@H]2C3=O)O1 [rotenone]
NADPH-dependent superoxide production in peak vesicular fractions (NADPH oxidase [1]; IL-1β-stimulated MCF-7 cells): not

Cu/ZnSOD: purified bovine Cu/ZnSOD (Oxis Research) added to media for endosomal loading
IL-1β-induced H2HFF-BSA fluorescence (MCF-7 cells; purified Cu/ZnSOD protein loaded into endosomal compartment, 1 mg/ml): significantly inhibited | DMPO adduct formation (ESR) (NADPH oxidase [4]): completely inhibited

antimycin A
NADPH-dependent superoxide production in peak vesicular fractions (NADPH oxidase [1]; IL-1β-stimulated MCF-7 cells): not

catalase
DMPO adduct formation (ESR) (NADPH oxidase [4]): not
